In patent US11708348B2, “Protease inhibitors for treatment of coronavirus infections” (The Scripps Research Institute, priority 2021, dated 2023) one finds EC50 data, which are given here for 22 molecules.

The subject of the first test is SARS-CoV-2 strain USA-WA1/2020. Description: microbe, parasite or virus in culture. The test is classed as cell-based. As to conditions: Severe acute respiratory syndrome coronavirus 2, HeLa-ACE2, 24 h, HeLa-ACE2 cells, SARS-CoV-2 infection, 24 h; bound printed in cell; read-out: EC50, uM (Hela).
A word on the EC50: it is the concentration at which the effect is half-maximal. Take `O=C1NCC[C@H]1C[C@H](NC(=O)[C@@H]1CC2(CC2)CN1C(=O)C(O)C1CCS(=O)(=O)CC1)C(=O)COC(F)(F)F` (stereo partly drawn) [Compound 388, (6S)-5-(2-(l,l-dioxidotetrahydro-2H-thiopyran-4-yl)-2-hydroxyacetyl)-N-((S)-3-oxo-1-((S)-2-oxopyrrolidin-3-yl)-4-(trifluoromethoxy)butan-2-yl)-5-azaspiro[2.4]heptane-6-carboxamide]: the half-maximal effective concentration (EC50) was more than 1 µM.

Still in this test, the particulars now being: Severe acute respiratory syndrome coronavirus 2, HeLa-ACE2, 24 h, HeLa-ACE2 cells, SARS-CoV-2 infection, 24 h; class symbols; read-out: EC50, uM (Hela).
As to `COc1cccc(C)c1NC(=O)C(=O)N[C@@H](CC(C)C)C(=O)N[C@@H](C[C@@H]1CCNC1=O)C(=O)COC(F)(F)F` [Compound 165, N1-(2-methoxy-6-methylphenyl)-N2-((S)-4-methyl-1-oxo-1-(((S)-3-oxo-1-((S)-2-oxopyrrolidin-3-yl)-4-(trifluoromethoxy)butan-2-yl)amino)pentan-2-yl)oxalamide], the EC50 is less than 0.05 µM.

With `CC(C)(C)[C@@H](O)C(=O)N1C[C@H]2[C@@H]([C@H]1C(=O)N[C@@H](C[C@@H]1CCNC1=O)C(=O)COC(F)(F)F)C2(C)C` [Compound 343, (1R,2S,5S)-3-((R)-2-hydroxy-3,3-dimethylbutanoyl)-6,6-dimethyl-N-((S)-3-oxo-1-((S)-2-oxopyrrolidin-3-yl)-4-(trifluoromethoxy)butan-2-yl)-3-azabicyclo[3.1.0]-hexane-2-carboxamide], the concentration for a half-maximal effect (EC50) lay within 0.05 to 0.2 µM.

For the molecule `CC(C)C[C@H](NC(=O)C(=O)NC1CCC(F)(F)CC1)C(=O)N[C@@H](C[C@@H]1CCNC1=O)C(=O)COc1c(F)c(F)cc(F)c1F` [Compound 151, N^1-(4,4-difluorocyclohexyl)-N^2—((S)-4-methyl-1-oxo-1-(((S)-3-oxo-1-((S)-2-oxopyrrolidin-3-yl)-4-(2,3,5,6-tetrafluorophenoxy)butan-2-yl)amino)pentan-2-yl)oxalamide], the EC50 was 0.05 to 0.2 µM.

`CC(C)C[C@H](NC(=O)/C=C/c1ccccc1)C(=O)N[C@@H](C[C@@H]1CCNC1=O)C(=O)COc1c(F)c(F)cc(F)c1F` [Compound 66, (S)-2-cinnamamido-4-methyl-N-((S)-3-oxo-1-((S)-2-oxopyrrolidin-3-yl)-4-(2,3,5,6-tetrafluorophenoxy)butan-2-yl)pentanamide]: the EC50 is 0.05 to 0.2 µM.

In the case of `CC(C)CC[C@H](NC(=O)C(=O)Nc1ccccc1)C(=O)N[C@@H](C[C@@H]1CCNC1=O)C(=O)COc1c(F)c(F)cc(F)c1F` [Compound 36, N1-((S)-5-methyl-1-oxo-1-(((S)-3-oxo-1-((S)-2-oxopyrrolidin-3-yl)-4-(2,3,5,6-tetrafluorophenoxy)butan-2-yl)amino)hexan-2-yl)-N2-phenyloxalamide], the concentration for a half-maximal effect (EC50) is less than 0.05 µM.

On to `O=C(Nc1ccccc1Cl)C(=O)N[C@@H](CC1CCCCC1)C(=O)N[C@@H](C[C@@H]1CCNC1=O)C(=O)COc1c(F)c(F)cc(F)c1F` [Compound 92, N1-(2-chlorophenyl)-N2-((S)-3-cyclohexyl-1-oxo-1-(((S)-3-oxo-1-((S)-2-oxopyrrolidin-3-yl)-4-(2,3,5,6-tetrafluorophenoxy)butan-2-yl)amino)propan-2-yl)oxalamide], for which the EC50 is less than 0.05 µM.

Regarding `COc1cccc2[nH]c(C(=O)N[C@@H](CC(C)C)C(=O)N[C@@H](C[C@@H]3CCNC3=O)C(=O)COC(F)F)cc12` [Compound 198, N—((S)-1-(((S)-4-(difluoromethoxy)-3-oxo-1-((S)-2-oxopyrrolidin-3-yl)butan-2-yl)amino)-4-methyl-1-oxopentan-2-yl)-4-methoxy-1H-indole-2-carboxamide], the concentration for a half-maximal effect (EC50) was 0.2 to 0.5 µM.

As to `CC(C)C[C@H](NC(=O)OCc1cccc(Cl)c1)C(=O)N[C@@H](C[C@@H]1CCNC1=O)C(=O)COc1c(F)c(F)cc(F)c1F` [Compound 22, 3-chlorobenzyl ((S)-4-methyl-1-oxo-1-(((S)-3-oxo-1-((S)-2-oxopyrrolidin-3-yl)-4-(2,3,5,6-tetrafluorophenoxy)butan-2-yl)amino)pentan-2-yl)carbamate], the 50% effective concentration (EC50) lay within 0.2 to 0.5 µM.

Turning to `CC[C@@H](O)C(=O)N[C@H](CC1(C)CC1)C(=O)N[C@@H](C[C@@H]1CCNC1=O)C(=O)COC(F)(F)F` [Compound 375, (R)-2-hydroxy-N-((R)-3-(l-methylcyclopropyl)-1-oxo-1-(((S)-3-oxo-l-((S)-2-oxopyrrolidin-3-yl)-4-(trifluoromethoxy)butan-2-yl)amino)propan-2-yl)butanamide], the EC50 fell in the range of 0.05 to 0.2 µM.

Still in this test, the particulars now being: Severe acute respiratory syndrome coronavirus 2, HeLa-ACE2, 24 h, HeLa-ACE2 cells, SARS-CoV-2 infection, 24 h; given as bound; read-out: EC50, uM (Hela).
Consider `CC1(NC(=O)C(=O)N2[C@H](C(=O)N[C@@H](C[C@@H]3CCNC3=O)C(=O)COC(F)(F)F)CCC23CC3)CC1` [Compound 541, (S)-4-(2-((l-methyl-cyclopropyl)amino)-2-oxoacetyl)-N-((S)-3-oxo-1-((S)-2-oxopyrrolidin-3-yl)-4-(trifluoromethoxy)butan-2-yl)-4-azaspiro-[2.4]heptane-5-carboxamide], for which the EC50 is more than 1 µM.

Staying with this test, now noted: Severe acute respiratory syndrome coronavirus 2, HeLa-ACE2, 24 h, HeLa-ACE2 cells, SARS-CoV-2 infection, 24 h; read-out: EC50, uM (Hela).
As for `CNS(=O)(=O)NCC(=O)N1CC2(CC2)C[C@H]1C(=O)N[C@@H](C[C@@H]1CCNC1=O)C(=O)COC(F)(F)F` [Compound 691, (S)-5-((N-methylsulfamoyl)glycyl)-N-((S)-3-oxo-1-((S)-2-oxopyrrolidin-3-yl)-4-(trifluoromethoxy)butan-2-yl)-5-azaspiro[2.4]heptane-6-carboxamide], the EC50 fell in the range of 0.5 to 1 µM.

With `CC(C)(C)NC(=O)C(=O)N1CC2(COC2)C[C@@H]1C(=O)N[C@@H](C[C@@H]1CCNC1=O)C(=O)COC(F)(F)F` [Compound 514, (R)-6-(2-(tert-butylamino)-2-oxoacetyl)-N-((S)-3-oxo-1-((S)-2-oxopyrrolidin-3-yl)-4-(trifluoromethoxy)butan-2-yl)-2-oxa-6-azaspiro[3.4]octane-7-carboxamide], the EC50 was in the range of 0.5 to 1 µM.

With `CC(C)(C(=O)N1CC2(CC2)C[C@H]1C(=O)N[C@@H](C[C@@H]1CCNC1=O)C(=O)COC(F)(F)F)c1ccccc1` [Compound 619, (S)-5-(2-methyl-2-phenylpropanoyl)-N-((S)-3-oxo-1-((S)-2-oxopyrrolidin-3-yl)-4-(trifluoromethoxy)butan-2-yl)-5-azaspiro[2.4]heptane-6-carboxamide], the concentration for a half-maximal effect (EC50) was less than 0.05 µM.

For `CC(C)(NC(=O)C(=O)N1C[C@H]2CCCC[C@H]2C[C@H]1C(=O)N[C@@H](C[C@@H]1CCNC1=O)C(=O)COC(F)(F)F)C(F)(F)F` [Compound 487, (3S,4aS,8aS)-N-((S)-3-oxo-1-((S)-2-oxopyrrolidin-3-yl)-4-(trifluoromethoxy)butan-2-yl)-2-(2-oxo-2-((1,1,1-trifluoro-2-methylpropan-2-yl)amino)acetyl)-decahydroiso-quinoline-3-carboxamide], the half-maximal effective concentration (EC50) lay within 0.05 to 0.2 µM.

Consider `O=C1NCC[C@H]1C[C@H](NC(=O)[C@@H]1CC2(CC2)CN1C(=O)Cc1ccccc1)C(=O)COC(F)(F)F` [Compound 648, (S)-N-((S)-3-oxo-1-((S)-2-oxopyrrolidin-3-yl)-4-(trifluoromethoxy)butan-2-yl)-5-(2-phenylacetyl)-5-azaspiro[2.4]heptane-6-carboxamide], for which the 50% effective concentration (EC50) was less than 0.05 µM.

Regarding `O=C1NCC[C@H]1C[C@H](NC(=O)[C@@H]1CC2(CC2)CN1C(=O)[C@H](O)c1ccc(F)cc1)C(=O)COC(F)(F)F` [Compound 403, (S)-5-((R)-2-(4-fluorophenyl)-2-hydroxyacetyl)-N-((S)-3-oxo-1-((S)-2-oxopyrrolidin-3-yl)-4-(trifluoromethoxy)butan-2-yl)-5-azaspiro[2.4]heptane-6-carboxamide], the EC50 is 0.05 to 0.2 µM.

`O=C(N[C@@H](CC1CC1)C(=O)N[C@@H](C[C@@H]1CCNC1=O)C(=O)COC(F)(F)F)c1nnc(Nc2ccccc2)o1` [Compound 461, N-((S)-3-cyclopropyl-1-oxo-1-(((S)-3-oxo-1-((S)-2-oxopyrrolidin-3-yl)-4-(trifluoromethoxy)butan-2-yl)amino)propan-2-yl)-5-(phenylamino)-l,3,4-oxadiazole-2-carboxamide]: the EC50 fell in the range of 0.2 to 0.5 µM.

In the case of `CC(F)(F)CCC(=O)N1CC2(CC2)C[C@H]1C(=O)N[C@@H](C[C@@H]1CCNC1=O)C(=O)COC(F)(F)F` [Compound 678, (S)-5-(4,4-difluoropentanoyl)-N-((S)-3-oxo-1-((S)-2-oxopyrrolidin-3-yl)-4-(trifluoromethoxy)butan-2-yl)-5-azaspiro[2.4]heptane-6-carboxamide], the concentration giving a half-maximal response (EC50) was less than 0.05 µM.

On to `CC(C)CC(C)(C)C(=O)N1CC2(CC2)C[C@H]1C(=O)N[C@@H](C[C@@H]1CCNC1=O)C(=O)COC(F)(F)F` [Compound 625, (S)-N-((S)-3-oxo-1-((S)-2-oxopyrrolidin-3-yl)-4-(trifluoromethoxy)butan-2-yl)-5-(2,2,4-trimethylpentanoyl)-5-azaspiro[2.4]heptane-6-carboxamide], for which the EC50 is less than 0.05 µM.

The same test, now with this note: Severe acute respiratory syndrome coronavirus 2, HeLa-ACE2, 24 h; read-out: EC50, uM (Hela).
As for `CC(C)(C)[C@H](NC(=O)C(F)(F)F)C(=O)N1CC2(CC2)C[C@H]1C(=O)N[C@@H](C[C@@H]1CCNC1=O)C(=O)COC(F)(F)F` [Compound 441, (S)-5-((S)-3,3-dimethyl-2-(2,2,2-trifluoroacetamido)butanoyl)-N—((S)-3-oxo-1-((S)-2-oxopyrrolidin-3-yl)-4-(trifluoromethoxy)butan-2-yl)-5-azaspiro[2.4]heptane-6-carboxamide], the EC50 is less than 0.05 µM.

Take `CC(C)C[C@H](NC(=O)C(=O)Nc1ccccc1)C(=O)N[C@@H](C[C@@H]1CCNC1=O)C(=O)COP(=O)(c1ccccc1)c1ccccc1` [Compound 73, (S)-3-((S)-4-methyl-2-(2-oxo-2-(phenylamino)acetamido)-pentanamido)-2-oxo-4-((S)-2-oxopyrrolidin-3-yl)butyl-diphenylphosphinate]: the concentration giving a half-maximal response (EC50) lay within 0.05 to 0.2 µM.
